The record followed here is patent publication US20230303599A1, “PRODRUGS OF PHOSPHONAMIDE NUCLEOTIDE ANALOGUES AND THEIR PHARMACEUTICAL USE” (priority 2020, published 2023).

In one data set the test system is HIV-1 (IIIB). Put plainly: Antiviral (HIV) assay in MT-4 cells. Type of data set: cell-based. The protocol:
Example 104: Antiviral (HIV) Assay in MT-4 Cells
Compounds were tested in a high-throughput 384-well assay format for their ability to inhibit the replication of HIV-1 (IIIB) in MT-4 cells. Compounds were serially diluted (1:3) in DMSO on 384-well polypropylene plates and further diluted 200-fold into complete RPMI media (10% FBS, 1% P/S) using the Biotek Micro Flow and Labcyte ECHO acoustic dispenser. Each plate contained up to 8 test compounds, with negative (no drug) and positive (5 μM AZT) controls. MT-4 cells were pre-treated with 10 μL of either RPMI (mock-infected) or a fresh 1:250 dilution of HIV-1 IIIB concentrated virus stock. Infected and uninfected MT-4 cells were further diluted in complete RPMI media and added to each plate using a Micro Flow dispenser. After 5 days incubation in a humidified and temperature-controlled incubator (37° C.), Cell Titer Glo (Promega) was added to the assay plates and chemiluminescence read using an Envision plate-reader. EC50 values were defined as the compound concentration that causes a 50% decrease in luminescence signal and were calculated using a sigmoidal dose-response model to generate curve fits and are shown in Table 1.

A short description of data set [1]: Cytotoxicity assay in MT-4 cells. Type of data set: cell-based. As to conditions: human, uninfected MT-4 cells, average of at least two independent experiments, read-out: MT4 CC50. In outline:
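Uninfected MT-4 cells were incubated 5 days at 37 °C with 1:3 serially diluted compound in RPMI (10% FBS), with 10 μM puromycin as baseline cytotoxicity. Viability was read by CellTiter-Glo luminescence. Values are concentrations giving 50% luminescence decrease, from sigmoidal dose-response fits.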

Data set [2] in a line: Kinetic solubility analysis. As to conditions: 1× PBS, 24.2 °C, aqueous buffer, kinetic from dmso stock; pH 7.4 PBS, 1% DMSO, 24-hour incubation at ambient temperature. Type of data set: physicochemical. The gist of the method: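 Compounds from 10 mM DMSO stocks were incubated in 0.1 N HCl or 1× PBS pH 7.4 (1.0% DMSO, 100 μM maximum theoretical) for 24 h at 24.2-27.5 °C, then vacuum filtered. Filtrates were quantified in μM by chemiluminescent nitrogen detection against a calibration curve, corrected for background nitrogen; values for adjacent ring-nitrogen compounds were raised ~25%.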

The subject of a further data set is HBV. The data set is described as follows: Antiviral (HBV) assay in primary human hepatocytes (PHHs). As to conditions: Hepatitis B virus, Hepatocyte, 120 h; HBV (GTD) infected PHH, 5 days, HBV DNA in supernatant; average of at least two independent experiments. Type of data set: cell-based. As for the experimental part: Example 106: Antiviral (HBV) Assay in Primary Human Hepatocytes (PHHs)
Cryopreserved PHH were thawed, recovered by centrifugation at 100 g in cryopreserved hepatocyte recovery medium (Thermo Fisher Scientific; CM7500), and plated on collagen matrix (Life Technologies; Catalog Number: R-011-K) coated T225 flasks (Corning CellBIND, Catalog Number: 3293) at a density of 25E6 live cells in 60 mls media. Cells were plated in William's E medium (Thermo Fisher Scientific; A1217601) supplemented with 3.6% hepatocyte thawing and plating supplement (Thermo Fisher Scientific, A15563), 5% fetal bovine serum (Thermo Fisher Scientific; 16000-036), 1 μM dexamethasone (Thermo Fisher Scientific, A15563), and 0.2% Torpedo antibiotic mix (Bioreclamation; Z990008). The plating medium was removed after 14 hours and the cells were subsequently cultured in maintenance medium: William's E medium supplemented with 4% hepatocyte maintenance supplement (Thermo Fisher Scientific; AI15564), 2% fetal bovine serum, 0.1μ M dexamethasone, 1.5% DMSO (Sigma-Aldrich, St. Louis, MO; D8418), and 0.2% Torpedo antibiotic mix. Approximately 24 hours after plating, PHH were infected with HepAD38-derived GTD virus at 500 viral genome equivalents per cell in PHH maintenance medium supplemented with 4% PEG 8000 (Promega, Madison, WI; V3011). Infections were allowed to proceed for 24 hours before removing the remaining extracellular virions by washing with maintenance medium three times. After allowing viral infection to take place for 3 days, the infected cells were harvested from the flasks by trypsinization (0.25X in PBS without Ca/Mg, 25 minutes) following a 4 minute 0.5X Versene (Life Technologies Catalog Number: 15040-066) treatment and two PBS washes. Trypsinized cells were inactivated in 10% FBS containing maintenance medium, centrifuged 6 minutes at 50 g, resuspended in hepatocyte maintenance medium, filtered through a 40 uM cell strainer, and adjusted to a density of 0.25E6 cells/ml. Infected cells were seeded on 384 well collagen coated plates (Greiner, Austria) at a density of 20,000 cells/well containing serially diluted compounds of the present disclosure or DMSO (0.5%) in a final volume of 80 μl. The assay plates were incubated for a period of 5 days and the antiviral activity of the test compounds were assayed by detecting the presence of HBV DNA in the culture supernatant using the QuantiGene™ 2.0 nucleic acid quantification kit (Affymetrix, Santa Clara, CA).

Data set [3] can be described thus: Cytotoxicity assay in primary human hepatocytes (PHHs). Type of data set: cell-based. As to conditions: HBV-infected primary human hepatocytes, HBV-infected PHH, Cell Titer Glo, average of at least two independent experiments. The gist of the method:
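HBV-infected primary human hepatocytes seeded at 20K cells/well on compound-prespotted collagen plates and incubated 5 days. After removing supernatant for HBV DNA analysis, viability measured in remaining cells by CellTiter-Glo luminescence.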

[4] abbreviates: Human immunodeficiency virus 1, IIIB, MT4, 120 h, read-out: MT4 HIV EC50 (nM).

In brackets after ≈: the same amount, converted by molar mass. Where two headings read alike, the source gives them in different places.

On to `C[C@H](Cn1cnc2c(N)ncnc21)OCP(=O)(NC(C)(C)C(=O)OCC1CCC(C)(C)CC1)NC(C)(C)C(=O)OCC1CCC(C)(C)CC1` [Example 13, Bis((4,4-dimethylcyclohexyl)methyl) 2,2′-(((((1-(6-amino-9H-purin-9-yl)propan-2-yl)oxy)methyl)phosphoryl)bis(azanediyl))(R)-bis(2-methylpropanoate)], for which the EC50 – broadly, the concentration at which the effect is half-maximal – in the data set with HIV-1 (IIIB) (Human immunodeficiency virus 1, MT4, 120 h, HIV-1 IIIB in MT-4 cells, 5 days, Cell Titer Glo, average of at least two independent experiments, read-out: MT4 HIV EC50) was found to be 16 nM. In data set [1], the CC50 (in general, the concentration giving 50% cytotoxicity) at 5 days is 5470 nM. Moreover, the kinetic solubility (in general, solubility judged after dilution from a stock solution rather than from solid) at 24 h in data set [2] is under 1 µg/mL.
Regarding `C[C@H](Cn1cnc2c(N)ncnc21)OCP(=O)(NC(C)(C)C(=O)OCC1CC2(C1)CC(F)(F)C2)NC(C)(C)C(=O)OCC1CC2(C1)CC(F)(F)C2` [Example 58, Bis((6,6-difluorospiro[3.3]heptan-2-yl)methyl) 2,2′-(((((1-(6-amino-9H-purin-9-yl)propan-2-yl)oxy)methyl)phosphoryl)bis(azanediyl))(R)-bis(2-methylpropanoate)], the figures for the CC50 at 5 days in data set [1] and in data set [3] were 3680 nM and over 100 nM, respectively. The compound also had an EC50 in the data set with HBV of 1.26 nM. This compound also yielded a kinetic solubility at 24 h in data set [2] of 51 µg/mL (≈ 68.4 µM).
`C[C@H](Cn1cnc2c(N)ncnc21)OCP(=O)(NC(C)(C)C(=O)OCC12CC3CC(CC(C3)C1)C2)NC(C)(C)C(=O)OCC12CC3CC(CC(C3)C1)C2` [Example 59, Bis(((1S,3S)-adamantan-1-yl)methyl) 2,2′-((((((R)-1-(6-amino-9H-purin-9-yl)propan-2-yl)oxy)methyl)phosphoryl)bis(azanediyl))bis(2-methylpropanoate)]: the CC50 at 5 days in data set [1] was 6960 nM; in data set [3], over 100 nM. In the data set with HBV, this compound gave an EC50 of 6.53 nM. The same compound showed a kinetic solubility at 24 h in data set [2] of under 1 µg/mL.
For `C[C@H](Cn1cnc2c(N)ncnc21)OCP(=O)(NC(C)(C)C(=O)O[C@@H]1C[C@@H]2C[C@@H]2C1)NC(C)(C)C(=O)O[C@@H]1C[C@@H]2C[C@@H]2C1` [Example 60, Di((1R,3R,5S)-bicyclo[3.1.0]hexan-3-yl) 2,2′-((((((R)-1-(6-amino-9H-purin-9-yl)propan-2-yl)oxy)methyl)phosphoryl)bis(azanediyl))bis(2-methylpropanoate)] the same measures were 3310 nM, over 100 nM, 1.44 nM and 76 µg/mL (≈ 123 µM).
Regarding `CCCCCCOC(=O)C(C)(C)NP(=O)(CO[C@H](C)Cn1cnc2c(=N)n(Cc3oc(=O)oc3C)cnc21)NC(C)(C)C(=O)OCCCCCC` [Example 83, Dihexyl 2,2′-(((((1-(6-imino-1-((5-methyl-2-oxo-1,3-dioxol-4-yl)methyl)-1,6-dihydro-9H-purin-9-yl)propan-2-yl)oxy)methyl)phosphoryl)bis(azanediyl))(R)-bis(2-methylpropanoate)], the values for the CC50 at 5 days in data set [1] and in data set [3] were 6600 nM and over 100 nM, respectively. Besides, the EC50 with HBV turned out to be 2.14 nM. In data set [2], the solubility (kinetic) at 24 h worked out at 33 µg/mL (≈ 44.7 µM).
Consider `CCCCCCOC(=O)C(C)(C)NP(=O)(CO[C@H](C)Cn1cnc2/c(=N\Cc3oc(=O)oc3C)n(Cc3oc(=O)oc3C)cnc21)NC(C)(C)C(=O)OCCCCCC` [Example 84, Dihexyl 2,2′-(((((1-(1-((5-methyl-2-oxo-1,3-dioxol-4-yl)methyl)-6-(((5-methyl-2-oxo-1,3-dioxol-4-yl)methyl)imino)-1,6-dihydro-9H-purin-9-yl)propan-2-yl)oxy)methyl)phosphoryl)bis(azanediyl))(R,E)-bis(2-methylpropanoate)], for which the figures for the CC50 at 5 days in data set [1] and in data set [3] were 10600 nM and over 100 nM, respectively. The concentration for a half-maximal effect (EC50) with HBV was 3.37 nM. Moreover, in data set [2], the kinetic solubility at 24 h was 8 µg/mL (≈ 9.41 µM).
Take `C[C@H](Cn1cnc2c(N)ncnc21)OCP(=O)(NC(C)(C)C(=O)OC1CC2(CCCCC2)C1)NC(C)(C)C(=O)OC1CC2(CCCCC2)C1` (stereo partly drawn) [Example 86, Di(spiro[3.5]nonan-2-yl) 2,2′-(((((1-(6-amino-9H-purin-9-yl)propan-2-yl)oxy)methyl)phosphoryl)bis(azanediyl))(R)-bis(2-methylpropanoate)]: the CC50 at 5 days is 3730 nM in data set [1] and over 100 nM in data set [3]. Moreover, in the data set with HBV, the midpoint of the response, the EC50, lay at 3.16 nM. In data set [2], this compound registered a solubility (kinetic) at 24 h of 2 µg/mL (≈ 2.85 µM).
Turning to `C[C@H](Cn1cnc2c(N)ncnc21)OCP(=O)(NC(C)(C)C(=O)OCC1CCC(F)(F)CC1)NC(C)(C)C(=O)OCC1CCC(F)(F)CC1` [Example 88, Bis((4,4-difluorocyclohexyl)methyl) 2,2′-(((((1-(6-amino-9H-purin-9-yl)propan-2-yl)oxy)methyl)phosphoryl)bis(azanediyl))(R)-bis(2-methylpropanoate)], the figures for the CC50 at 5 days in data set [1] and in data set [3] were 7290 nM and over 100 nM, respectively. In the data set on HBV, this compound returned an EC50 of 2.5 nM. For the same compound, the solubility (kinetic) at 24 h in data set [2] worked out at 69 µg/mL (≈ 95.6 µM).
For `C[C@H](Cn1cnc2c(N)ncnc21)OCP(=O)(NC(C)(C)C(=O)OC1CC(C2CCC2)C1)NC(C)(C)C(=O)OC1CC(C2CCC2)C1` (stereo partly drawn) [Example 90, Di([1,1′-bi(cyclobutan)]-3-yl) 2,2′-(((((1-(6-amino-9H-purin-9-yl)propan-2-yl)oxy)methyl)phosphoryl)bis(azanediyl))(R)-bis(2-methylpropanoate)], the figures for the CC50 at 5 days in data set [1] and in data set [3] were 5510 nM and over 100 nM, respectively. The compound also registered an EC50 with HBV of 2.95 nM. Moreover, the kinetic solubility at 24 h in data set [2] was determined as 7 µg/mL (≈ 10.4 µM).
For `CCC[C@H]1CC[C@H](COC(=O)C(C)(C)NP(=O)(CO[C@H](C)Cn2cnc3c(N)ncnc32)NC(C)(C)C(=O)OC[C@H]2CC[C@H](CCC)CC2)CC1` [Example 92] the same measures were 7990 nM, over 100 nM, 4.56 nM and under 1 µg/mL.
Turning to `CCCCCCOC(=O)C(C)(C)NP(=O)(CO[C@H](C)Cn1cnc2c(NC(=O)CC(C)(C)c3c(C)cc(C)cc3OC(C)=O)ncnc21)NC(C)(C)C(=O)OCCCCCC` [Example 100, Dihexyl 2,2′-(((((1-(6-(3-(2-acetoxy-4,6-dimethylphenyl)-3-methylbutanamido)-9H-purin-9-yl)propan-2-yl)oxy)methyl)phosphoryl)bis(azanediyl))(R)-bis(2-methylpropanoate)], in the data set with HIV-1 (IIIB) (setting [4]), the EC50 was 22 nM.
As for `C[C@H](Cn1cnc2c(N)ncnc21)OCP(=O)(NC(C)(C)C(=O)OCCc1ccccc1)NC(C)(C)C(=O)OCCc1ccccc1` [Example 103, Diphenethyl 2,2′-(((((1-(6-amino-9H-purin-9-yl)propan-2-yl)oxy)methyl)phosphoryl)bis(azanediyl))(R)-bis(2-methylpropanoate)], the EC50 in the data set on HIV-1 (IIIB) (setting [4]) was over 500 nM. In data set [1], the CC50 at 5 days was over 42500 nM.
